The values that follow come from patent publication US4454139A, “α2 -Adrenoceptor antagonistic benzoquinolizines” (John Wyeth & Brother, Limited, priority 1980, dated 1984).

For test [1], the system named is rats rendered hypertensive by implantation of desoxycorticosterone acetate. Kind of test: hypotensive activity in rats rendered hypertensive by implantation of desoxycorticosterone acetate. In kind it is in vivo, rat.
Test [2] concerns the target T1, postsynaptic (α1) α-adrenoceptor (Rattus norvegicus, UniProt P43140).
T1 construct: the isolated anococcygeus muscle of the rat; from tissue; host or cells: rat anococcygeus muscle (male rats, 250-360 g)
T1 sequence (P43140 1-466): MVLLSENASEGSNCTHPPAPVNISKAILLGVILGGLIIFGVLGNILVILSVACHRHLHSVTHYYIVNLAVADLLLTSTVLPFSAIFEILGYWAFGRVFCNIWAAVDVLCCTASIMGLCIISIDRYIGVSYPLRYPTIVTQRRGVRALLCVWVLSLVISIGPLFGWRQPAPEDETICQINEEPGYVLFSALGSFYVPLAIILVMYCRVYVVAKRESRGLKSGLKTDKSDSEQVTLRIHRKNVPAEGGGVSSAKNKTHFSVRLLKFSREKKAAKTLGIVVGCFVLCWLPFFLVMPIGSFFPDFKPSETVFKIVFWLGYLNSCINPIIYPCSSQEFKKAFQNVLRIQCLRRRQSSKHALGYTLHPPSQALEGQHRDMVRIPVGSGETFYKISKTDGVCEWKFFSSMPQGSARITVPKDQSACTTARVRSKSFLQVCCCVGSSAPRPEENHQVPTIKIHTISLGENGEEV
Kind of test: postsynaptic (α1) antagonistic activity on the isolated anococcygeus muscle of the rat (phenylephrine or methoxamine agonist). It is filed as cell-based. As to conditions: rat anococcygeus muscle; phenylephrine or methoxamine as agonist; α1; read-out: pA2 (postsynaptic) (converted). From the text: (§1) The postsynaptic(α1)antagonistic activity can be evaluated by a number of different methods. One method involves assessing the activity on the isolated anococcygeus muscle of the rat. The method is based on that of Gillespie, Br.J.Pharmac., 1972, 45, 404-416. In the procedure male rats (250-360 g) are killed by a blow on the head and bled. The two anococcygeus muscles are removed from their position in the midline of the pelvic cavity, where they arise from the upper coccygeal vertebrae. The muscles are suspended in 5 ml organ baths in Krebs solution containing 10^-4 M ascorbic acid, to prevent drug oxidation. The tissues are gassed with a 95% oxygen, 5% CO2 mixture and maintained at 37°. Longitudinal muscle contractions are recorded using isotonic transducers. Cumulative dose response curves are then obtained to phenylephrine or in some cases methoxamine, both agents being postsynaptic alpha adrenoceptor agonists. The concentration range of phenylephrine or methoxamine used is 0.02 to 0.8 μg.ml^-1. The agonist is then washed from the bath and the test drug added to the bathing medium at a concentration of 10^-6 M. After 30 min. equilibration with the test drug a further agonist dose response curve is obtained. The washing, equilibration and agonists dosing procedures are then repeated using 10^-5 M and 10^-4 M solutions of the test drug. Estimates of the pA2 value for the test drug as an antagonist of phenylephrine or methoxamine were made from the agonist dose-ratios using the method of Arunlakshana & Schild, Br.J.Pharmac.Chemother., 1959, 14, 48-58.

The test system of test [3] is postsynaptic (α1) α-adrenoceptor. Described as above. It is filed as cell-based.
Source text: as §1

Test [4] concerns the target T2, α2 (presynaptic α)-adrenoceptor (Rattus norvegicus, UniProt P22909).
T2 construct: from tissue; host or cells: rat vas deferens (desheathed, field stimulated)
T2 sequence (P22909 1-465): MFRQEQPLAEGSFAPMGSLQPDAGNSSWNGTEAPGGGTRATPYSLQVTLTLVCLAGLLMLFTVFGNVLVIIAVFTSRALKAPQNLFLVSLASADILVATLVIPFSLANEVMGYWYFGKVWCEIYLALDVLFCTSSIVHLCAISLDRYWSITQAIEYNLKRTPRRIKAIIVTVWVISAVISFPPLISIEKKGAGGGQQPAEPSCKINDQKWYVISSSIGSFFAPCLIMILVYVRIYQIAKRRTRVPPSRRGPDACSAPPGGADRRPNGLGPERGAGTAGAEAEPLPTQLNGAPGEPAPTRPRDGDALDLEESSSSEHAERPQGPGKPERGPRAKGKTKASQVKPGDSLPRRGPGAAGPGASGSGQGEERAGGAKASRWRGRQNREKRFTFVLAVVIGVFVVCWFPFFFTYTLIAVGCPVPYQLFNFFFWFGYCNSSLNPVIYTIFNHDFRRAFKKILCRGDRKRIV
Kind of test: α2-adrenoceptor antagonistic activity on the rat field stimulated vas deferens preparation (clonidine agonist). It is filed as cell-based. As to conditions: clonidine as agonist, Arunlakshana & Schild, read-out: pA2 (α2) (converted). Here is the method:
The compounds of the invention were tested for their α2 -adrenoceptor antagonistic activity on the rat field stimulated vas deferens preparation using a modification of the method of Drew, Eur.J.Pharmac., 1977, 42, 123-130. The procedure is described below. […] from sexually mature rats were suspended in a 6 ml organ bath in Krebs solution at 37° and bubbled with 5% CO2 in oxygen. Platinum ring electrodes were positioned above and below the tissue for field stimulation, the stimulus parameters being 0.1 Hz 1 ms pulse width at supramaximal voltage. Twitch responses were recorded isotonically with a 0.5 g loading. […] After washing out clonidine, the twitch response quickly recovered and an antagonist was then introduced into the Krebs reservoir. Clonidine concentration-response curves were repeated 90 min after introduction of the antagonist. The concentration of clonidine producing 50% inhibition of twitch before and after introduction of antagonist were obtained and the dose-ratio for clonidine was calculated. Various concentrations of the antagonists were used. […] Chemother., 1959, 14, 48-58 and the values of pA2 and slope were calculated.

Another test has as its system human blood platelets. Kind of test: inhibition of adrenaline-induced aggregation in vitro of human blood platelets. It is filed as cell-based.
In test [5] the test system is hyperglycaemia induced by the α2 agonist clonidine. Kind of test: inhibition of clonidine-induced hyperglycaemia in rats. It is filed as in vivo, rat. The following applies: 10 mg/kg, clonidine 15 μg/kg subcutaneous.

As to `CN([C@@H]1CCN2CCc3ccccc3[C@@H]2C1)S(C)(=O)=O` (relative stereo) [A, N-Methyl-N-(1,3,4,6,7,11bα-hexahydro-2H-benzo[a]quinolizin-2β-yl)methanesulphonamide], the hypotensive activity entry in test [1] is “do not possess substantial hypotensive activity”. Moreover, the Kb is 1.12 µM in test [2] and 0.02 µM in test [4]. Moreover, in test [3], the α2 selectivity was 56. Also, in the test on human blood platelets, the “inhibition of the aggregation in vitro of human blood platelets induced by adrenaline” value is on record as “inhibit the aggregation”. For the same compound, the “inhibition of the hyperglycaemia induced by clonidine” value in test [5] was “inhibited the hyperglycaemia”.
